Data published in patent EP3130339A1, “A COMPOUND FOR USE IN THE TREATMENT OF COMORBID ANXIETY DISORDER AND DEPRESSION DISORDER” (Aché Laboratórios Farmacêuticos S.A., priority 2015, dated 2017).

Columns and labels:
Assay type in all cases: in vivo
[1] = test system: Mice; experiment: Non-precipitated withdrawal test; settings: mouse, in vivo, po
Text: This test aims at assessing how the sudden cessation of the administration of a medicine can be associated with the occurrence of withdrawal identifiable symptoms. The types of symptoms examined are feed changes, weight gain, body temperature and the occurrence of one or behavioral symptoms and others, such as tremor, teeth chattering, wet dog body-shaking, diarrhea or piloerection. The triggering of these signs is a first sign that the substance induces dependence after repeated administration.
The method employed followed the procedure described by Goudie and Leathley (Psychopharmacology 1991, 103: 529-537).
Two mice per cage received two administrations per day (approximately 10:00 hours and 16:00 hours) of the test substance continuously during 19 days (day 1 to day 19), with the last administration occurring next to 10:00 hours of the 20th day. Control animals received the same number of administrations of vehicle. […] During the discontinuation phase, all animals received administration of vehicle once a day.
Additionally to the observations made after discontinuing the medicines, the same measures were taken at day 1 and day 10 of treatment, in addition to the 3 last days (days 18 to 20) immediately prior to administration of the dose in the morning to assess the effects of medicines before discontinuation. After discontinuation, the first observation was performed 24 hours after the last administration and, from then on, every 24 hours (days 21 to 28).
For daily measurements, the animals were evaluated with respect to behavioral changes during 5 minutes (two animals simultaneously observed). Then, their body weights and rectal temperatures were measured. Then, they received the proper treatment and were returned to their cages.
The leftover food in their supporters was weighed immediately after all animals return to their cages (only in the mornings), and food consumption in the previous 24 hours was determined.
The body weights, feed consumption and rectal temperatures were also measured 24 hours before the first administration, as reference values. The treated groups were homogenized with regard to body weights on the day preceding the first administration of the tested substances.
Compound (A) (3-(2-(-4-(2-methoxyphenyl)piperazin-1-yl)ethyl)quinazolin-4 (3H)-one) was evaluated in 3 doses (3, 10 and 30 mg/kg) administered orally (p.o.) and compared to the vehicle (control group).
Chlordiazepoxide (64 mg/kg, p.o.) was administered under the same experimental conditions, and was employed as reference substance in the test.
Paroxetine (15 and 30 mg/kg p.o.) was administered under the same experimental conditions and was used as comparative substance.
The test was blinded. Data were analyzed by comparing substances with their control vehicles employing one-way ANOVA with the group as a factor followed by post-hoc Dunnett tests. Data with the reference substance were analyzed using unpaired Student's t test.

[2] = test system: Mice; experiment: Sphere hiding test; settings: 1.0 mg/kg i.p.
Description: This test is based on the natural aversive behavior to glass and marble of rodents, where the presence of these objects triggers the action of burying (hiding). In this test, there are potential behavioral changes of medicines that may promote an ansiogenic or anxiolytic profile. This is determined by the increase or decrease of the behavior of hiding glass spheres ("marbles") that are randomly distributed on the surface of a box lined with sawdust. The increase of the number of covered balls is an indicative of anxiety, since it is supposed to represent a foreign agent to the animal, whose presence may pose threat. The administration of anxiolytics medicines decreases the number of spheres buried in non-sedative doses.
The method employed followed the procedure described by Broekkamp et al. (Eur. J. Pharmacol., 1986, 126, 223-229).
Mice were individually placed in transparent plastic cages (33 x 21 x 18 cm), with the floor covered by a 5 cm layer of sawdust and 25 glass spheres grouped in the center of the cage. The cage was covered with a perforated plastic cover. Each test cage, along with the glass spheres, were previously impregnated with "mouse odor", and a group of 10 mice was left inside for 15 minutes.
The number of glass spheres covered with sawdust (2/3 or more of the surface) was counted at the end of the 30 minutes of the test.
Each study group consisted of 12 mice. The test was partially blind (substances tested versus vehicle of the tested substances).
This test aimed at obtaining a comparison profile of response of Compound (A) (3-(2-(-4-(2-methoxyphenyl)piperazin-1-yl) ethyl) quinazolin-4 (3H) -one and Compound (B) (3-(2-(4-(2-cyanophenyl)piperazin-1-yl)ethyl)quinazolin-4(3H)-one) with known compounds that act by different mechanisms. The comparative compounds used were alprazolam (benzodiazepine) and paroxetine (ISRS-type antidepressant). These compounds were tested in the following doses: Table 3: Compounds tested, concentrations employed and route of administration.
Fluoxetine (ISRI antidepressant) was used as the positive control substance in the test, and was administered at 32 mg/kg (i.p.).
Quantitative data for the tested substances (number of glass spheres coated with sawdust) were evaluated by comparison with the treated groups using one-way ANOVA followed by planned comparisons against the appropriate vehicles. Data with fluoxetine were compared to the vehicle control using unpaired Student's t test.

[3] = test system: mice (RJ:NMRI, males); experiment: Bright/dark box test (clear/dark transition test); settings: 30 minutes before the test; for Time spent in the clear compartment (seconds) (mean ± mean standard error): three-minute test
Description: This model, also known as clear/dark transition test, is characterized as a model of conflict, based on the natural tendency to explore new environments versus avoidance of doing so, due to the potential possibility of the presence of aversive stimuli. It is an animal model based on independent behavior of conditioning, therefore, there is no need of learning. In rodents, this model is grounded in their natural aversion to excessively clear environments. This aversion is measured from the ansiogenic component expressed by lower exposure of the animal to the clear compartment.
The method employed followed the procedure described by Crawley and Goodwin (Pharmacol. Biochem. Behav. 1981, 15, 695-699).
The animals were placed on the clear field of a box comprising two compartments, one being illuminate and open (25 x 27 x 27 cm) and the other being dark and close (20 x 27 x 27 cm). Data on the length of stay in each compartment were collected over the three-minute test.
This test aimed at obtaining a comparison profile of response of Compound (A) (3-(2-(-4-(2-methoxyphenyl)piperazin-1-yl)ethyl)quinazolin-4(3H)-one and Compound (B) 3-(2-(4-(2-cyanophenyl)piperazin-1-yl)ethyl)quinazolin-4(3H)-one with known compounds that act by different mechanisms. The comparative compounds were alprazolam (benzodiazepine), paroxetine (ISRS-type antidepressant), venlafaxine (IRSN-type antidepressant) and agomelatine (antidepressant that acts on melatonin and serotonin 5-HT2C receptor). The following doses were employed in this study: Table 1: Tested compounds, concentrations and route of administration.
In this blind study, ten mice (RJ:NMRI, males) were employed per group. Clobazam (12 mg/Kg, i.p. route) was administered under the same study conditions as the reference compound. All compounds were administered 30 minutes before the test.
The test data of the response of substances were analyzed comparing the groups treated with the control vehicle using one-way ANOVA followed by post-hoc analysis of Dunnett's test. The data of the reference substance obtained were analyzed using unpaired Student's t test.

withdrawal syndrome after an extended administration regimen [1]: induces mild withdrawal syndrome
Compound: Fc1ccc([C@@H]2CCNC[C@H]2COc2ccc3c(c2)OCO3)cc1 [Paroxetine, paroxetine]
amount of food consumed ([1]; 30 mg/kg): significant increase in the amount of food consumed
body weight and food consumption ([1]; 30 mg/kg): significantly induced weight loss and reduction of food consumption
Number of Hidden Spheres Compared to vehicle control % [2]: -56%
Number of Hidden Spheres (mean ± mean standard error) ([2]; 25 glass spheres, counted at the end of 30 minutes): 8,4 ± 2,3
Time spent in the clear compartment compared to vehicle % ([3]; 4 mg/Kg i.p.): +15%
Time spent in the clear compartment (seconds) (mean ± mean standard error) ([3]; 4 mg/Kg i.p.): 84.6 ± 7.4 s
Time spent in the clear compartment compared to vehicle % ([3]; 8 mg/Kg i.p.): -6%
Time spent in the clear compartment (seconds) (mean ± mean standard error) ([3]; 8 mg/Kg i.p.): 69.3 ± 5.9 s
Time spent in the clear compartment compared to vehicle % ([3]; 16 mg/Kg i.p.): -13%
Time spent in the clear compartment (seconds) (mean ± mean standard error) ([3]; 16 mg/Kg i.p.): 63.8 ± 8.2 s
